Test results: PMC7459852, “Identification of 6-(piperazin-1-yl)-1,3,5-triazine as a chemical scaffold with broad anti-schistosomal activities” (Wellcome Open Research, 2020)

Tested on: S. mansoni adult worms
Experiment: Scanning electron microscopy of compound damage on adult worms
Type: cell-based, Schistosoma mansoni
Conditions: 12.50 µM (sub-lethal), 72 h
Experimental: Following 72 h of drug treatment, the cultured S. mansoni adult worms were collected, separated by sex and relaxed with tricaine anaesthetic solution (0.25% w/v of ethyl 3-aminobenzoate methane sulfonate - Tricaine, E10521, Sigma Aldrich - in DMEM). The samples were incubated by gently rocking for 15 min or until parasites relaxed and separated. The parasites were then killed by incubation in a solution of […] magnesium chloride (MgCl 2) for 1 min. Afterwards, adult schistosome worms were briefly washed with pre-warmed 1X PBS and then fixed using appropriate solutions for analysis by scanning electron microscopy (SEM) as previously described in literature, [61], [62].
Post fixation, adult schistosomes were stored at 4°C until washing with 0.1 M sodium cacodylate was performed (2 x 30 min each). The worms were then stained with 1% v/v osmium tetroxide water solution (stored at -20°C and pre-warmed at room temperature prior to use) for 2 h and then washed with 0.1 M sodium cacodylate for 30 min. Following staining, worms were dehydrated with an aqueous alcohol series (30, 50, 70, 95 and 100% ethanol in ultra-pure water) by agitating gently on a rocker for 30 min per solution. At the final step, the samples were left in 100% ethanol overnight before being dried with hexamethyldisilazane critical drying point agent (AGR1228, Agar Scientific, Stansted, UK) for at least 3 h. […]

c1ccc(Nc2nc(N3CCCC3)nc(N3CCNCC3)n2)cc1 [Compound 7]
morphological changes of adult worms by SEM: partial loss of tubercles and spines as well as tegument erosion
